Results taken from US20060094722A1 (Eisai Co., Ltd., priority 2002, published 2006).
“And” between values parts separate entries of the source, which are not always exact repeats. Equal values may be shown once. Read-outs that look alike come from different tables or passages of the source.

Assays:
[1] = test system: DPPIV-intact normal male Fisher rats; assay: Influences of metformin and DPPIV inhibitors (Examples 82, 119, 120, 122, 229, 267), singly or in combination, on GLP-1 level in normal rats; assay type: in vivo, rat
Method: Animals: DPPIV-Intact Normal Male Fisher Rats (Purchased from CLEA Japan, Inc.)
250 μL of blood was collected from the rat using a heparinized capillary and transferred into a centrifugation tube.

Zucker fa/fa rats [2] = conditions: for Blood glucose level at each time point (hr) after oral glucose administration / GLP-1 concentration at each time point (hr) after oral glucose administration (% of Pre) / Insulin concentration at each time point (hr) after oral glucose administration: 300 mg/kg p.o. 0.5 hour before glucose load
Method: (§1) Animals: Zucker fa/fa Rats, an Animal Model for TypeII Diabetes (Purchased from Charles River Japan, Inc.)
(§2) Each test compound was dissolved in distilled water at the doses shown in the Tables indicated below, and then administered orally at a volume of 5 mL/kg. The vehicle control group was orally administered distilled water at a volume of 5 mL/kg. […] The rats were tested for glucose tolerance on the first day of the administration series. In the test, distilled water and the test compounds were given 0.5 hour before glucose load.
For the glucose tolerance test, an unanesthetized rat was lightly cut at the caudal vein with a razor blade and bled immediately before the administration of a test compound or distilled water, and immediately before, and at 0.5, 1, 2, and 3 hours after glucose load. 250 μL of blood was collected from the rat using a heparinized capillary and transferred into a centrifugation tube. The supernatant obtained by centrifugation (at 10000 g at 4° C. for 2 minutes) was assayed for active GLP-1 level using Active GLP-1 ELISA kit (Linco). At the same time, 10 μL of blood was collected and mixed with 140 μL of a 0.6 M perchloric acid solution. The mixture was centrifuged (at 3000 g at 4° C. for 10 minutes), and the resulting supernatant was assayed for glucose using Glucose Test Wako II (Wako Pure Chemical Industries, Inc.). The level of blood glucose alone was determined at the time of measurement 3 hours after glucose load.

Zucker fa/fa rats [3] = conditions: 300 mg/kg p.o. twice daily for 14 days
Method: as §1, §2
Food intake and body weight were determined at 4:00 p.m after the 14-day administration series. Total food intake and weight gain over 14 days were determined for each experimental group.

[4] = test system: DPPIV-deficient male Fisher rats; assay: Influence of metformin on the level of GLP-2 in DPPIV-deficient rats; assay type: in vivo, rat; conditions: 300 mg/kg p.o.; for GLP-2 concentration at each time point (hr) after oral administration (ng/ml): listed as metformin
Method: Animals: DPPIV-Deficient Male Fisher Rats (Purchased from Charles River Japan, Inc.)
The test compound was suspended in a solution of 0.5% methyl cellulose at the dose indicated in Table 11, and then administered orally at a volume of 5 mL/kg. The vehicle control group was orally administered an aqueous solution of 0.5% methyl cellulose at a volume of 5 mL/kg.
An unanesthetized rat was lightly cut at the caudal vein with a razor blade and bled immediately before, and at 1, 3, and 5 hours after administration of a test compound or a solution of 0.5% methyl cellulose. 250 μL of blood was collected from the rat using a heparinized capillary and transferred into a centrifugation tube. The supernatant obtained by centrifugation (at 10000 g at 4° C. for 2 minutes) was assayed for GLP-2 level using GLP-2 ELISA kit (Yanaihara Institute Inc.).

[5] = test system: DPPIV-deficient male Fisher rats
Method: Animals: DPPIV-deficient male Fisher rats (purchased from Charles River Japan, Inc.)
Each test compound was suspended in a solution of 0.5% methyl cellulose at the doses indicated in Table 2, and then administered orally at a volume of 5 mL/kg. The vehicle control group was orally administered a solution of 0.5% methyl cellulose at a volume of 5 mL/kg.
An unanesthetized rat was lightly cut at the caudal vein with a razor blade and bled immediately before, and at 1, 3, and 5 hours after the administration of a test compound or a solution of 0.5% methyl cellulose. 250 μL of blood was collected from the rat using a heparinized capillary and transferred into a centrifugation tube. The supernatant obtained by centrifugation (at 10000 g at 4° C. for 2 minutes) was assayed for GLP-1 level using Active GLP-1 ELISA kit (Linco).

[6] = test system: DPPIV-intact normal male Fisher rats; conditions: for GLP-1 concentration at each time point (hr) after oral administration (% of Pre): 300 mg/kg p.o.
Method: Each test compound was suspended in a solution of 0.5% methyl cellulose at the doses indicated in Table 3, and then administered orally at a volume of 5 mL/kg. The vehicle control group was orally administered a solution of 0.5% methyl cellulose at a volume of 5 mL/kg.
An unanesthetized rat was lightly cut at the caudal vein with a razor blade and bled immediately before, and at 1, 3, and 5 hours after administration of a test compound or a solution of 0.5% methyl cellulose. 250 μL of blood was collected from the rat using a heparinized capillary and transferred into a centrifugation tube. The supernatant obtained by centrifugation (at 10000 g at 4° C. for 2 minutes) was assayed for GLP-1 level using Active GLP-1 ELISA kit (Linco).

BALB/c AnCrj mice = conditions: 300 mg/kg p.o. twice a day, 5-FU treatment 60 mg/kg for 3 days, mice
Method: Animals: BALB/c AnCrj Mice (Purchased from Charles River Japan, Inc.)
5-FU (purchased from Sigma) was suspended in a solution of 0.5% methyl cellulose, and then administered orally at a volume of 10 mL/kg/day (8 a.m. to 9 a.m.) for 3 days (60 mg/kg). […] The vehicle control group was orally administered a solution of 0.5% methyl cellulose at a volume of 10 mL/kg.
Mice were fasted for 18 hours following the afternoon administration on the third day of the administration series. On the following day, the mice were killed by cervical dislocation, and then the whole small intestine was excised and the wet weight was measured.

`CN(C)C(=N)N=C(N)N` [Metformin, metformin] was tested, and the “GLP-1 concentration 3 hours after oral administration (% of Pre)” value ([1]; 300 mg/kg p.o., 3 hours) was 118.1 ± 7.5 % of Pre and 108.6 ± 2.2 % of Pre and 112.5 ± 2.4 % of Pre, the “level of active GLP-1” value ([1]; 3 hours after administration) was “no increase” and the “level of active GLP-1 during the glucose tolerance test” value (Zucker fa/fa rats [2]) was “no significant increase”. The “level of insulin during the glucose tolerance test” value (Zucker fa/fa rats [2]) was “no significant increase”, the “Blood glucose level at each time point (hr) after oral glucose administration” value (from here on “Blood glucose level at each time point”) (Zucker fa/fa rats [2]; 0 hr) was 117.4 ± 5.5 mg/dL and the “GLP-1 concentration at each time point (hr) after oral glucose administration (% of Pre)” value (Zucker fa/fa rats [2]; 0 hr) was 105.6 ± 1.7 % of Pre. For the same molecule, the “Insulin concentration at each time point (hr) after oral glucose administration” value (“Insulin concentration at each time point” for short) (Zucker fa/fa rats [2]; 0 hr) was 14.0 ± 1.1 ng/mL, the “Blood glucose level at each time point” value (Zucker fa/fa rats [2]; 0.5 hr) was 160.6 ± 9.7 mg/dL and the “GLP-1 concentration at each time point (hr) after oral glucose administration (% of Pre)” value (Zucker fa/fa rats [2]; 0.5 hr) was 135.4 ± 7.6 % of Pre. The “Insulin concentration at each time point” value (Zucker fa/fa rats [2]; 0.5 hr) was 22.9 ± 2.5 ng/mL, the “Blood glucose level at each time point” value (Zucker fa/fa rats [2]; 1 hr) was 177.5 ± 10.6 mg/dL and the “GLP-1 concentration at each time point (hr) after oral glucose administration (% of Pre)” value (Zucker fa/fa rats [2]; 1 hr) was 126.0 ± 8.9 % of Pre. The “Insulin concentration at each time point” value (Zucker fa/fa rats [2]; 1 hr) was 21.2 ± 2.3 ng/mL, the “Blood glucose level at each time point” value (Zucker fa/fa rats [2]; 2 hr) was 159.8 ± 8.6 mg/dL and the “GLP-1 concentration at each time point (hr) after oral glucose administration (% of Pre)” value (Zucker fa/fa rats [2]; 2 hr) was 118.4 ± 6.5 % of Pre. For the same molecule, the “Insulin concentration at each time point” value (Zucker fa/fa rats [2]; 2 hr) was 16.9 ± 1.6 ng/mL, the “Blood glucose level at each time point” value (Zucker fa/fa rats [2]; 3 hr) was 122.4 ± 3.7 mg/dL and the “Blood glucose level at each time point” value (Zucker fa/fa rats [2]; −0.5 hr) was 108.9 ± 5.6 mg/dL. The “GLP-1 concentration at each time point (hr) after oral glucose administration (% of Pre)” value (Zucker fa/fa rats [2]; −0.5 hr) was 100.0 ± 0.0 % of Pre, the “Insulin concentration at each time point” value (Zucker fa/fa rats [2]; −0.5 hr) was 11.9 ± 1.1 ng/mL and the glucose tolerance (Zucker fa/fa rats [2]; glucose tolerance test) was “improved”. For the same molecule, the “Total food intake for 14 days” value (Zucker fa/fa rats [3]) was 495.1 ± 8.9 g, the “Weight gain for 14 days” value (Zucker fa/fa rats [3]) was 64.5 ± 3.5 g and the “GLP-2 concentration at each time point (hr) after oral administration” value ([4]; 0 hr) was 1.32 ± 0.02 ng/mL. For the same molecule, the “GLP-2 concentration at each time point (hr) after oral administration” value ([4]; 1 hr) was 1.65 ± 0.06 ng/mL, the “GLP-2 concentration at each time point (hr) after oral administration (ng/ml)” value (shortened to “GLP-2 concentration at each time point … (ng/ml)”) ([4]; 1 hr) was “significantly elevated” and the “GLP-2 concentration at each time point (hr) after oral administration” value ([4]; 3 hr) was 2.08 ± 0.07 ng/mL. For the same molecule, the “GLP-2 concentration at each time point … (ng/ml)” value ([4]; 3 hr) was “significantly elevated”, the “GLP-2 concentration at each time point (hr) after oral administration” value ([4]; 5 hr) was 2.15 ± 0.05 ng/mL and the “GLP-2 concentration at each time point … (ng/ml)” value ([4]; 5 hr) was “significantly elevated”. The “GLP-1 concentration at each time point (hr) after oral administration (% of Pre)” value ([5]; 30 mg/kg p.o., 0 hr) was 100 ± 0.0 % of Pre, the “GLP-1 concentration at each time point (hr) after oral administration (% of Pre)” value ([5]; 30 mg/kg p.o., 1 hr) was 99.9 ± 3.7 % of Pre and the “GLP-1 concentration at each time point (hr) after oral administration (% of Pre)” value ([5]; 30 mg/kg p.o., 3 hr) was 106.6 ± 5.0 % of Pre. For the same molecule, the “GLP-1 concentration at each time point (hr) after oral administration (% of Pre)” value ([5]; 30 mg/kg p.o., 5 hr) was 116.3 ± 2.7 % of Pre, the “GLP-1 concentration at each time point (hr) after oral administration (% of Pre)” value ([5]; 100 mg/kg p.o., 0 hr) was 100 ± 0.0 % of Pre and the “GLP-1 concentration at each time point (hr) after oral administration (% of Pre)” value ([5]; 100 mg/kg p.o., 1 hr) was 111.6 ± 7.9 % of Pre. The “GLP-1 concentration at each time point (hr) after oral administration (% of Pre)” value ([5]; 100 mg/kg p.o., 3 hr) was 116.3 ± 8.2 % of Pre, the “GLP-1 concentration at each time point (hr) after oral administration (% of Pre)” value ([5]; 100 mg/kg p.o., 5 hr) was 150.6 ± 7.2 % of Pre and the “GLP-1 concentration at each time point (hr) after oral administration (% of Pre)” value ([5]; 300 mg/kg p.o., 0 hr) was 100 ± 0.0 % of Pre. For the same molecule, the “GLP-1 concentration at each time point (hr) after oral administration (% of Pre)” value ([5]; 300 mg/kg p.o., 1 hr) was 140.0 ± 11.5 % of Pre, the “GLP-1 concentration at each time point (hr) after oral administration (% of Pre)” value ([5]; 300 mg/kg p.o., 3 hr) was 199.3 ± 32.4 % of Pre and the “GLP-1 concentration at each time point (hr) after oral administration (% of Pre)” value ([5]; 300 mg/kg p.o., 5 hr) was 227.1 ± 35.5 % of Pre. For the same molecule, the “GLP-1 concentration at each time point (hr) after oral administration (% of Pre)” value ([5]; 300 mg/kg p.o., 5 hr, listed as metformin) was “significantly elevated”, the “GLP-1 concentration at each time point (hr) after oral administration (% of Pre)” value ([6]; 0 hr) was 100 ± 0.0 % of Pre and the “GLP-1 concentration at each time point (hr) after oral administration (% of Pre)” value ([6]; 1 hr) was 117 ± 9 % of Pre. For the same molecule, the “GLP-1 concentration at each time point (hr) after oral administration (% of Pre)” value ([6]; 3 hr) was 149 ± 24 % of Pre, the “GLP-1 concentration at each time point (hr) after oral administration (% of Pre)” value ([6]; 5 hr) was 94 ± 10 % of Pre and the “level of active GLP-1” value ([6]; given singly) was “no increase”. The “Wet weight of small intestine” value (BALB/c AnCrj mice) was 0.642 ± 0.017 g and the “Wet weight of small intestine (g)” value (BALB/c AnCrj mice; listed as metformin) was “no alteration”.
